{
  "source": "patent US11191732B2",
  "about": "“Glutaminase inhibitor discovery and nanoparticle-enhanced delivery for cancer therapy” (The Johns Hopkins University, priority 2014, dated 2021)",
  "key": {"[1]": {"test": "BPTES levels in pancreatic tumors after intravenous administration (LC-MS/MS)", "type": "in vivo, mice", "conditions": "all time points, limit of detection 10 nM", "text": "BPTES levels were quantified by LC-MS/MS.\n(§1) DMSO solution per dose, as this was is the highest dose that could be administered based on solubility and injection volume limitations."}, "[2]": {"system": "glutamine-dependent JHU094 pancreatic patient tumor", "test": "JHU094 pancreatic patient tumor growth in vivo", "parameters": "species or system mice", "conditions": "nanoparticle 1.2 mg vs free 0.3125 mg in 100 μl, IV", "text": "as §1"}, "[3]": {"system": "KRAS-mutant human pancreatic cancer cells", "test": "Growth of glutamine-addicted pancreatic cancer cells with BPTES", "type": "cell-based", "conditions": "full DMEM media, BPTES dissolved in DMSO", "procedure": "Cells were grown at 37° C. in a 5% (v/v) CO2 and 95% (v/v) air incubator in full DMEM media."}, "Metabolic stability": {"test": "Metabolic stability", "type": "in vitro ADME", "conditions": "oxidation of the sulfide moiety", "text": "In compound 4, the terminal aminothiadiazole ring was replaced with a secondary amide, presenting a new scaffold for GLS inhibitors."}, "GLS": {"biological_target": "GLS (Homo sapiens (Human), UniProt O94925)", "sequence (O94925 73-669)": "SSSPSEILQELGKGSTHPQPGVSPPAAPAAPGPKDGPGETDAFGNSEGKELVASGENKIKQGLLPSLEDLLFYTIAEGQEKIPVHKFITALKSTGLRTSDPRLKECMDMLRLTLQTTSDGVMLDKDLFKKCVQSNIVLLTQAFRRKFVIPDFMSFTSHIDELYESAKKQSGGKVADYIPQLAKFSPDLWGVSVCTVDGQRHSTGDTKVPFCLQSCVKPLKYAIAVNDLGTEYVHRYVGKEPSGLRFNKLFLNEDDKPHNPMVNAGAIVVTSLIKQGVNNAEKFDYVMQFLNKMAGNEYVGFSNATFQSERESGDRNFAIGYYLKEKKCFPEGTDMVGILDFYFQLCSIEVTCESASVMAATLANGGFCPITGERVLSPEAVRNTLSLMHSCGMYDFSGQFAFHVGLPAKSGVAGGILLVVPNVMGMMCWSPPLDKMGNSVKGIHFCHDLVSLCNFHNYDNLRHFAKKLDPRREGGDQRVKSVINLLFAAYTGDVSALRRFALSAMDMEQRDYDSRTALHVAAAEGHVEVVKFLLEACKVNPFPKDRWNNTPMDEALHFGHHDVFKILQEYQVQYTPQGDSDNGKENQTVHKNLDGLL", "test": "Inhibition of GLS (established radioactive assay)", "type": "biochemical", "text": "All new synthetic compounds can be tested for their ability to inhibit GLS using an already established radioactive assay."}, "[4]": {"system": "resected pancreatic cancer", "conditions": "six cycles adjuvant, cited from earlier work"}, "Panc265 tumor": {"system": "Panc265 tumor", "test": "Panc265 patient-derived orthotopic pancreatic cancer xenograft tumor growth", "type": "in vivo", "conditions": "BPTES nanoparticles 1.2 mg every 3 days IV; gemcitabine 625 μg twice per week IP; 4 weeks"}, "[5]": {"system": "resected pancreatic cancer", "conditions": "6 months adjuvant treatment after complete macroscopic resection; cited from earlier work"}},
  "data": [
    {"smiles": "O=C(Cc1ccccc1)Nc1nnc(CCSCCc2nnc(NC(=O)Cc3ccccc3)s2)s1", "note": "[BPTES, bis-2-[5-(phenylacetamido)-1,3,4-thiadiazol-2-yl]ethyl sulfide]", "values": [
      {"measurement": "BPTES level in tumor", "setting": "[1]", "value": "< 10", "unit": "nM"},
      {"measurement": "effect on tumor growth", "setting": "[2]", "value": "no statistical benefit"},
      {"measurement": "effect on growth of glutamine-addicted pancreatic cancers", "setting": "[3]", "value": "inhibitory to their growth"}
    ]},
    {"smiles": "Nc1nnc(CCSCCc2nnc(N)s2)s1", "note": "[Compound 2]", "values": [
      {"measurement": "metabolic stability", "setting": "Metabolic stability", "value": "metabolically unstable"},
      {"measurement": "IC50", "setting": "GLS", "value": 100000, "unit": "nM"}
    ]},
    {"smiles": "Nc1nnc(CCCCc2nnc(NC(=O)Cc3ccccc3)s2)s1", "note": "[Compound 3]", "values": [
      {"measurement": "IC50", "setting": "GLS", "value": 1900, "unit": "nM"}
    ]},
    {"smiles": "O=C(CCCCc1nnc(NC(=O)Cc2ccccc2)s1)NCCN1CCCC1", "note": "[Compound 4]", "values": [
      {"measurement": "IC50", "setting": "GLS", "value": 4600, "unit": "nM"}
    ]},
    {"smiles": "O=C(Cc1ccccc1)Nc1nnc(CCCCc2nnc(NC(=O)Cc3ccc(O)cc3)s2)s1", "note": "[Compound 5]", "values": [
      {"measurement": "IC50", "setting": "GLS", "value": 80, "unit": "nM"}
    ]},
    {"smiles": "O=C(O)CCCCC(=O)Nc1nnc(CCCCc2nnc(NC(=O)Cc3ccccc3)s2)s1", "note": "[Compound 6]", "values": [
      {"measurement": "IC50", "setting": "GLS", "value": 100, "unit": "nM"}
    ]},
    {"smiles": "O=C(O)CCCCCC(=O)Nc1nnc(CCCCc2nnc(NC(=O)Cc3ccccc3)s2)s1", "note": "[Compound 7]", "values": [
      {"measurement": "IC50", "setting": "GLS", "value": 100, "unit": "nM"}
    ]},
    {"smiles": "Nc1ccn([C@@H]2O[C@H](CO)[C@@H](O)C2(F)F)c(=O)n1", "note": "[gemcitabine]", "values": [
      {"measurement": "survival rate at 10 years", "setting": "[4]; observation-alone arm 7.7%", "value": 12.2, "unit": "%"},
      {"measurement": "survival rate at 5 years", "setting": "[4]; observation-alone arm 10.4%", "value": 20.7, "unit": "%"},
      {"measurement": "reduction in tumor growth", "setting": "Panc265 tumor", "value": "40-50%"},
      {"measurement": "Median OS", "setting": "[5]", "value": 23.6, "unit": "months"}
    ]}
  ]
}
